In US7888339B2, “2-methylene-20(21)-dehydro-19-nor-vitamin D analogs” (Wisconsin Alumni Research Foundation, priority 2008, dated 2011):
pEC50, pKi: −log10 of the molar value.

What was measured:
HL-60 cells = test: HL-60 cell differentiation (nitro blue tetrazolium reduction); assay type: cell-based, human; details: for pEC50: HL-60 cells into monocytes, FIG. 2
Procedure: The study drugs were dissolved in ethanol and the concentrations determined using UV spectrophotometry. Serial dilutions were prepared so that a range of drug concentrations could be tested without changing the final concentration of ethanol (≦0.2%) present in the cell cultures.
Human promyelocytic leukemia (HL60) cells were grown in RPMI-1640 medium containing 10% fetal bovine serum. The cells were incubated at 37° C. in the presence of 5% CO2.
HL60 cells were plated at 1.2×10^5 cells/ml. Eighteen hours after plating, cells in duplicate were treated with drug. Four days later, the cells were harvested and a nitro blue tetrazolium reduction assay was performed (Collins et al., 1979; J. Exp. Med. 149:969-974). The percentage of differentiated cells was determined by counting a total of 200 cells and recording the number that contained intracellular black-blue formazan deposits. Verification of differentiation to monocytic cells was determined by measuring phagocytic activity (data not shown).

[1] = tested on: 24-hydroxylase (24Ohase) gene promoter in ROS 17/2.8 (bone) cells; test: In vitro transcription assay (24-hydroxylase gene promoter, luciferase reporter); assay type: cell-based; details: ROS 17/2.8 cells, 24-hydroxylase promoter-luciferase; FIG. 3; read-out: EC50, transcriptional activity in bone cells
Procedure: Transcription activity was measured in ROS 17/2.8 (bone) cells that were stably transfected with a 24-hydroxylase (24Ohase) gene promoter upstream of a luciferase reporter gene (Arbour et al., 1998). Cells were given a range of doses. Sixteen hours after dosing the cells were harvested and luciferase activities were measured using a luminometer.
RLU=relative luciferase units.

[2] = tested on: bone calcium mobilization; test: Bone calcium mobilization (serum calcium) in vitamin D-deficient rats; assay type: in vivo, rat; details: FIG. 4; for mobilization of bone calcium (serum calcium): ip, 4 consecutive days, rats on 0.02% Ca diet
Procedure: (§1) Male, weanling Sprague-Dawley rats were placed on Diet 11 (0.47% Ca) diet+AEK oil for one week followed by Diet 11 (0.02% Ca)+AEK oil for 3 weeks. The rats were then switched to a diet containing 0.47% Ca for one week followed by two weeks on a diet containing 0.02% Ca. Dose administration began during the last week on 0.02% calcium diet. Four consecutive ip doses were given approximately 24 hours apart. Twenty-four hours after the last dose, blood was collected from the severed neck and the concentration of serum calcium determined as a measure of bone calcium mobilization. The first 10 cm of the intestine was also collected for intestinal calcium transport analysis using the everted gut sac method.

[3] = tested on: intestinal calcium transport; test: Intestinal calcium transport (everted gut sac method) in vitamin D-deficient rats; assay type: in vivo, rat; details: FIG. 5; for intestinal calcium transport: 260 pmol/day, ip, 4 consecutive days, everted gut sac
Procedure: as §1

[4] = target: T1, full-length recombinant rat vitamin D receptor (Rattus norvegicus, UniProt P13053); test: Vitamin D receptor competitive binding with [3H]-1,25(OH)2D3; details: FIG. 1
T1 construct: Full-length recombinant rat receptor was expressed in E. coli; histidine tag (C); made in house; host or cells: E. coli BL21 (DE3) Codon Plus RIL
T1 sequence (P13053 1-423): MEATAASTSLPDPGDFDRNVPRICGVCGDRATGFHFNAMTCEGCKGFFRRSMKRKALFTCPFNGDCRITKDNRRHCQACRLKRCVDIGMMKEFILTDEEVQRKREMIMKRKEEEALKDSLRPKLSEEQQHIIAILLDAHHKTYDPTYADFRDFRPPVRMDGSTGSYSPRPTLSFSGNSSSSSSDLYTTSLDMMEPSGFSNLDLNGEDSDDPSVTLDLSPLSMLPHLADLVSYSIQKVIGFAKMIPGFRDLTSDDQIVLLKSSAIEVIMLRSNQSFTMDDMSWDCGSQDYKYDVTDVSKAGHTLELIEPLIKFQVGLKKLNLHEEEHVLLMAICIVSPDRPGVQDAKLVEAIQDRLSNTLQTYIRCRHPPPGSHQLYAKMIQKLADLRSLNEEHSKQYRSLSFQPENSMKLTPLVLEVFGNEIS
Procedure: Full-length recombinant rat receptor was expressed in E. coli BL21 (DE3) Codon Plus RIL cells and purified to homogeneity using two different column chromatography systems. The first system was a nickel affinity resin that utilizes the C-terminal histidine tag on this protein. The protein that was eluted from this resin was further purified using ion exchange chromatography (S-Sepharose Fast Flow). Aliquots of the purified protein were quick frozen in liquid nitrogen and stored at −80° C. until use. For use in binding assays, the protein was diluted in TEDK50 (50 mM Tris, 1.5 mM EDTA, pH7.4, 5 mM DTT, 150 mM KCl) with 0.1% Chaps detergent. The receptor protein and ligand concentration were optimized such that no more than 20% of the added radiolabeled ligand was bound to the receptor.
Radiolabeled and unlabeled ligands were added to 100 mcl of the diluted protein at a final ethanol concentration of ≦10%, mixed and incubated overnight on ice to reach binding equilibrium. The following day, 100 mcl of hydroxylapatite slurry (50%) was added to each tube and mixed at 10-minute intervals for 30 minutes. The hydroxylapaptite was collected by centrifugation and then washed three times with Tris-EDTA buffer (50 mM Tris, 1.5 mM EDTA, pH 7.4) containing 0.5% Titron X-100. […] Total binding was determined from the tubes containing only radiolabeled ligand.

C=C1/C(=C\C=C2/CCC[C@]3(C)[C@@H]([C@H](C)CCCC(C)(C)O)CC[C@@H]23)C[C@@H](O)C[C@@H]1O [1,25(OH)2D3, 1α,25-dihydroxyvitamin D3, reference compound]
pEC50 (HL-60 cells): 8.70 | pEC50 [1]: 9.52 | mobilization of bone calcium (serum calcium) ([2]; 260 pmol/day): increased serum calcium levels | intestinal calcium transport [3]: significant increase

C=C1[C@H](O)CC(=C/C=C2\CCC[C@]3(C)[C@@H](C(=C)CCCC(C)(C)O)CC[C@@H]23)C[C@H]1O [Vit III 20-21, 2-methylene-20(21)-dehydro-19-nor-1α,25-dihydroxyvitamin D3]
pKi ([4]; full-length recombinant rat VDR, read-out: Ki, competition with [3H]-1,25(OH)2D3 for binding to the vitamin D receptor): 10.00 | VDR binding affinity compared to 1,25(OH)2D3 ([4]; in words): same affinity | pEC50 (HL-60 cells; Homo sapiens): 9.15 | potency on HL-60 cell differentiation relative to 1,25(OH)2D3 (HL-60 cells; compared to 1,25(OH)2D3): 3 to 4 times | pEC50 [1]: 8.70 | mobilization of bone calcium (serum calcium) ([2]; 260 pmol/day): did not result in mobilization of bone calcium | mobilization of bone calcium (serum calcium) ([2]; 2340 pmol/day): substantial effect | bone calcium mobilization activity compared to 1,25(OH)2D3 ([2]; in words): less bone calcium mobilization activity | intestinal calcium transport [3]: promotes intestinal calcium transport | intestinal calcium transport activity compared to 1,25(OH)2D3 ([3]; in words): about the same activity
